{
  "source": "paper PMC4701221",
  "about": "“Novel Promising Estrogenic Receptor Modulators: Cytotoxic and Estrogenic Activity of Benzanilides and Dithiobenzanilides” (PLoS ONE, 2016)",
  "key": {"MTT assay, CCD39Lu": {"experiment": "MTT assay, CCD39Lu", "format": "cell-based", "details": "human, CCD39Lu cells (non-tumorigenic lung fibroblasts), read-out: Cytotoxic activity IC50, CCD39Lu", "protocol": "The cell lines used in the cytotoxicity study, besides MCF-12A, were purchased from European Collection of Cell Culture (ECACC, Salisbury, UK): HEK293 (human embryonic kidney, ATTC no. CRL-1573), A549 (Human lung carcinoma, ECACC no. 86012804), CCD39Lu (Human lung fibroblasts, ECACC no. 90110512), MCF-7 (Human breast adenocarcinoma, ECACC no. 86012803) and MDA-MB-231 (Human breast adenocarcinoma ECACC no. 92020424). Cell lines were cultured in DMEM medium without phenol red and supplemented with 10% (v/v) FBS, 1% penicillin-streptomycin and 1% L-glutamine. MCF-12A (ATTC no. […]) was purchased from American Type Culture Collection (ATCC Manassas, VA 20110 USA). MCF-12A cells were kept in 1:1 mixture of Dulbecco’s modified Eagle’s medium and Ham’s F12 medium, 20 ng/ml human epidermal growth factor, 100 ng/ml cholera toxin, 0.01 mg/ml bovine insulin, 500 ng/ml hydrocortisone and 5% horse serum. All cell lines were cultured at 37°C, in a humidified atmosphere containing 5% CO2.\nCompounds were dissolved in DMSO to the final concentration of […]. A549, CCD39Lu, MCF-7, MDA-MB-231 and MCF-12A cells were seeded in 96 wells plates at density 2x10^4 cells/well and incubated overnight as described above. Subsequently, cells were treated with tested compounds at concentrations: 100 μM; 50 μM; 25μM; 12.5μM; 6 μM; 3 μM; 1.5 μM. […] Cells were incubated 72 h at 37°C in a humidified atmosphere containing 5% CO2 in the cell culture media appropriate for each cell line. Then, the medium was aspirated and 170 μl MTT solution (5mg/ml) was added to each well. Plates were incubated for 2 hours at 37°C, and then plates were centrifuged at 1200 rpm for 3 minutes. The formazan crystals were dissolved in 200 μl DMSO and plates were further agitated on a plate shaker at 300–500 rpm for 10 minutes. Absorbance at 570 nm (with reference wavelenght 650 nm) was measured using a plate reader (Biotek Instruments, Elx-800). Cell viability was calculated as a percentage relative to the control."}, "MCF-7 cells": {"test_system": "MCF-7 cells", "experiment": "LDH release assay, MCF-7", "format": "cell-based, human", "details": "72 h, Fig 2", "protocol": "Cytotoxicity was evaluated by measuring the cell membrane permeability, using a LDH assay kit purchased from Cayman Chemical (Ann Arbor USA). The LDH assay was performed for MCF-7 and MDA-MB-231 cells (seeded at 2×10^4 density). As a positive control cell permeabilization with 1%Triton X-100 was used. The assay was performed 72h after start the incubation. Briefly, the plates were centrifuged at 400 ×g for 5 minutes, and 100 μL of supernatant were transferred from each well to the new 96-well plate and analyzed according to the manufacturer’s protocol. 100 μL of reaction mixture, containing lactic acid, NAD^+, tetrazolium salt and diaphorase, was added to each well. Plates were incubated on an orbital shaker for 30 minutes at room temperature and the absorbance at 490 nm was measured with a plate reader (Biotek Instruments, Elx-800). Results were expressed as a percentage of the total value of the positive control."}, "human ERα receptor": {"target": "T1, human ERα receptor (Homo sapiens, UniProt P03372)", "T1 construct": "host or cells: HEK293", "T1 sequence (P03372 1-595)": "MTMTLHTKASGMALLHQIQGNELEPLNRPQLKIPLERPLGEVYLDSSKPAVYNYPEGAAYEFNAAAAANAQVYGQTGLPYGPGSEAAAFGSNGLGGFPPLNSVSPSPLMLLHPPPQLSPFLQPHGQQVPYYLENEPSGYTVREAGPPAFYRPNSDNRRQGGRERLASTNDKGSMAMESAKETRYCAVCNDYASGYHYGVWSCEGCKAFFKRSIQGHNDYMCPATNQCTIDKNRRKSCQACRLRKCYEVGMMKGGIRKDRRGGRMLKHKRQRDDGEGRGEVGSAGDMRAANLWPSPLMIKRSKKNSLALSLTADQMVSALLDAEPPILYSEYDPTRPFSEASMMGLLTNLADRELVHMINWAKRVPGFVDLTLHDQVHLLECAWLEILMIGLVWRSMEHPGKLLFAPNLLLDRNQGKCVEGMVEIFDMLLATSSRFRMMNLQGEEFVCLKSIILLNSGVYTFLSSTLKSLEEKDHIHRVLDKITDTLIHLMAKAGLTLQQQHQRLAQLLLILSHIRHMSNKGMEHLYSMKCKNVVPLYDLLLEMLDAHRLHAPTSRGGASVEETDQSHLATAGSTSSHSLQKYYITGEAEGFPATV", "experiment": "Estrogen Receptor luciferase assay in HEK293 cells transfected with ERα", "format": "cell-based", "details": "HEK293 transfected with ERα and luciferase reporter, compared with estradiol, Fig 3A/3B", "description": "To obtain a eukaryotic vector expressing only the ER-α nuclear receptor, a construct was designed by cloning a KpnI-BamHI fragment from plasmid pEGFP-C1-ERα containing the ERα coding sequence that includes a stop signal into the pEGFP-N3 plasmid (Clontech Laboratories, Palo Alto, CA) under the control of the CMV promoter. This construction was termed pEGFP-N-ERα, and although it encoded both human ERα receptor and GFP protein, only the former is expressed. For mock transfections, pEGFP-N3 plasmid was digested with BglII and NotI and religated after polishing DNA ends to remove GFP coding sequence. Plasmid sequence was confirmed by automatic sequencing. Prior to transfection, cells were seeded in 48 well plates at density of 1.5 x 10^4 cells/well and incubated for 24 h to reach a cell confluence of 80–90%. […] MCF-7 cells, which endogenously express ERα receptor, were transfected with p3xERRE/ERE-luciferase plus the pRLTK Renilla luciferase control plasmid (95:5). Firefly and Renilla luciferase activities were measured using the Dual Luciferase Assay System (Promega, Madison, WI, USA), following a standard protocol using a Sirius L luminometer (Berthold Technologies, Bad Wildbad, Germany). Data were expressed as relative changes in luciferase activity and normalized to 100%."}, "MDA-MB-231 cells": {"test_system": "MDA-MB-231 cells", "experiment": "Sulphorodamine B assay, MDA-MB-231", "format": "cell-based, human", "details": "72 h, Fig 2", "protocol": "In addition to the MTT assay, cell viability was measured by the Sulphorodamine B assay according to Vichai and Kirtikara. The MCF-7 and MDA-MB-23 cells were seeded and treated as for the MTT assay. After incubation the medium was removed and the cells were fixed with cold (4°C) trichloroacetic acid (final concentration 10%) for 1h. Than plates were washed 4 times with water and stained for 30 min, following by staining with sulforhodamine B (SRB) 0.4% in 1% acetic acid solution at room temperature for 20 min. After staining, the SRB solution was removed and the plates washed 5 times with 1% acetic acid dried. Bound SRB was solubilized with 200 μl 10 mM unbuffered Tris-base solution and plates were shaked for 10 min. The absorbance at 510 nm was measured using a plate reader (Biotek Instruments, Elx-800)."}},
  "note": "“Also recorded” adds a separate entry of the source.",
  "data": [
    {"molecule": "Fc1ccc(NC(=S)c2ccc(NC(=S)c3ccc(F)cc3)cc2)cc1", "note": "[Compound 18]", "values": [
      {"measurement": "IC50 at 72 h", "setting": "MTT assay, CCD39Lu", "result": "> 100", "unit": "µM"},
      {"measurement": "LDH release, MCF-7", "setting": "MCF-7 cells", "result": "relatively low increase"},
      {"measurement": "ER dependent transcriptional activity", "setting": "human ERα receptor", "result": "capable to mediate ER dependent transcriptional activity in a similar mode than estradiol; also recorded: higher transcriptional activity at all assayed concentrations compared with estradiol"},
      {"measurement": "Effect in SRB assay, MDA-MB-231", "setting": "MDA-MB-231 cells", "result": "non-significant effects"}
    ]}
  ]
}
